Experimental data from ChEMBL document CHEMBL1759977, “Investigation of the mode of binding of a novel series of N-benzyl-4-heteroaryl-1-(phenylsulfonyl)piperazine-2-carboxamides to the hepatitis C virus polymerase” (Bioorg Med Chem Lett, 2011).
Active and inactive are the calls of the source. The rule behind the calls is not given here.

What was measured:
Hepatitis C virus [1] = experiment: Antiviral activity against Hepatitis C virus subtype 1a by replication assay; type: functional, organism-based, Hepacivirus hominis
Hepatitis C virus [2] = experiment: Antiviral activity against Hepatitis C virus subtype 1b by replication assay; type: functional, organism-based, Hepacivirus hominis; conditions: genotype 1b
Hepatitis C virus [3] = experiment: Binding affinity to HCV 1b NS5B polymerase; conditions: Hepatitis C virus subtype 1b
[4] = system: Hepatitis C virus subtype 1a; experiment: Binding affinity to HCV 1a wild type NS5B polymerase

Row | SMILES | EC50 (Hepatitis C virus [1]) [nM] | EC50 (Hepatitis C virus [2]) [nM] | Activity [4] | Activity (Hepatitis C virus [3])
1 | CC[C@H](C)NC(=O)c1ccc(N2CCN(S(=O)(=O)c3ccc(OC(F)(F)F)cc3)[C@@H](C(=O)NCc3ccc(OC(F)(F)F)cc3)C2)nn1 | 87 | 7 | – | –
2 | O=C(NC1CC1)c1ccc(N2CCN(S(=O)(=O)c3ccc(OC(F)(F)F)cc3)[C@@H](C(=O)NCc3ccc(OC(F)(F)F)cc3)C2)nn1 | 169 | 9 | Active | Active
3 | CCc1ccc(S(=O)(=O)N2CCN(c3cc(OC)nc(OC)n3)CC2C(=O)NCc2ccc(OC)cc2)cc1 (racemic) | 25000 | 2000 | – | –

Further lines, with some results ahead:

Row | EC50 (Hepatitis C virus [1]) [nM] | EC50 (Hepatitis C virus [2]) [nM] | Activity [4] | SMILES | Activity (Hepatitis C virus [3])
4 | 8100 | 700 | – | COc1ccc(CNC(=O)C2CN(c3cc(OC)nc(OC)n3)CCN2S(=O)(=O)c2ccc(OC(F)(F)F)cc2)cc1 (racemic) | Active
5 | 2200 | 700 | – | COc1ccc(CNC(=O)C2CN(c3ccc(Cl)nn3)CCN2S(=O)(=O)c2ccc(OC(F)(F)F)cc2)cc1 (racemic) | Active
